Data as given in patent publication US20120053168A1, “FUSED BENZOAZEPINES AS NEURONAL NICOTINIC ACETYLCHOLINE RECEPTOR LIGANDS” (Targacept, Inc., priority 2009, published 2012).

Experiments:
[1] = system: normal rats; test: Novel Object Recognition (NOR) task; format: in vivo, rat
Experimental: Episodic memory is a cognitive domain known to be impaired in Alzheimer's disease; the Novel Object Recognition task is a commonly used and quick, clean model used to assess potential cognitive benefit derived from the test compounds. Compound A (7,8,9,10-tetrahydro-6H-azepino[4,5-g]quinoxaline) improved long-term visual episodic/declarative memory as assessed by novel object recognition (NOR) task following oral dosing in normal rats. Memory was assessed by using the three-trial object recognition test. On the first day (exploratory trial), rats were allowed to explore an open arena (44.5×44.5×30.5 cm) for 6 min. On the second day (acquisition trial), rats were allowed to explore the same arena in the presence of two identical objects (both object A) for 3 minutes. On the third day (retention or recall trial), performance was evaluated by allowing the same animal to re-explore the arena for 3 minutes in the presence of two different objects: the familiar object A and a novel object B. An inter-trial interval of 24 hours was imposed between the three NOR trials. Recognition memory was assessed by comparing the time spent exploring a novel (object B) versus a familiar (object A) object during the recall trial. Recognition index was assessed for each animal and expressed as a ratio ((time B/time A+time B)×100).
Compound A was evaluated for its duration of effect in the NOR task in normal rats. Using similar experimental procedures as described earlier, 0.03, 0.1, and 0.3 mg/kg (0.15, 0.5 and 1.51 μmol/kg) Compound A was orally administered to animals 30 minutes prior to placement in the arena for the exploratory and acquisition trials. For the recall trial (i.e., third day of dosing), animals were placed in the arena at 6 h, post administration.
A follow-up NOR study evaluated the duration of effect of Compound A following a 6 h pre-treatment prior to the recall trial.

[2] = biological target: T1, human ganglionic nAChR subtype (Homo sapiens, UniProt P30926+P32297); test: 86Rb+ efflux in SH-SY5Y cells (human ganglionic nAChR subtype); format: cell-based
T1 construct: endogenous in cells; host or cells: SH-SY5Y human neuroblastoma cells
T1 sequence (P32297 32-505): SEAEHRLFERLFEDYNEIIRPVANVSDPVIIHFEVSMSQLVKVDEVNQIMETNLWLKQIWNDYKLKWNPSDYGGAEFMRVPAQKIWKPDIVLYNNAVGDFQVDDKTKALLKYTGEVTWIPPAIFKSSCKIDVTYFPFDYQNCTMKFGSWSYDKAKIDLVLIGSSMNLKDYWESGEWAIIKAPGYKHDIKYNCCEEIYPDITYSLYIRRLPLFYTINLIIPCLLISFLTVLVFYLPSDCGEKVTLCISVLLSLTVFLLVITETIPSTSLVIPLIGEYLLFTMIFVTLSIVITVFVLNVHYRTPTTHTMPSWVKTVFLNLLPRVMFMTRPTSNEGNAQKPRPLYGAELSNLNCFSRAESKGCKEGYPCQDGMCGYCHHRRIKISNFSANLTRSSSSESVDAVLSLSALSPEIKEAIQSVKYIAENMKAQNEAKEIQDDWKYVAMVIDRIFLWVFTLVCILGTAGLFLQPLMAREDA
T1 sequence (P30926 22-498): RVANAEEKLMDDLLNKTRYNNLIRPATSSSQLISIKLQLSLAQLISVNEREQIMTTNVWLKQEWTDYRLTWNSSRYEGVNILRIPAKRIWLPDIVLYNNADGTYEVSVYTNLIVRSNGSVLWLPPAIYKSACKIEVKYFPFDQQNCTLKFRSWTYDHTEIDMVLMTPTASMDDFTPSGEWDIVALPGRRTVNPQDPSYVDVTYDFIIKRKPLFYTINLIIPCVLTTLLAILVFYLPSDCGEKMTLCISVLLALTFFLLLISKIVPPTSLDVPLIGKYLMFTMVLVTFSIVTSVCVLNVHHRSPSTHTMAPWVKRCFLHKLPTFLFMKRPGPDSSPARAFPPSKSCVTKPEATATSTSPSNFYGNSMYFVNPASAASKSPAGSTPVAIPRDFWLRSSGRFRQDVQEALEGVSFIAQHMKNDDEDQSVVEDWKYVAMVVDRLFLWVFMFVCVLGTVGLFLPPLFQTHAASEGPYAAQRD
From the text: Example 8: Interaction at the Human Ganglionic nAChR Subtype
The cell line SH-SY5Y is a continuous line derived by sequential subcloning of the parental cell line, SK-N-SH, which was originally obtained from a human peripheral neuroblastoma. SH-SY5Y cells express a ganglion-like nAChR (Lukas et al., Mol. Cell. Neurosci. 4: 1 (1993)).
Human SH-SY5Y cells were maintained in proliferative growth phase according to routine protocols (Bencherif et al., Mol. Cell. Neurosci. 2: 52 (1991) and Bencherif et al., J. Pharmacol. Exp. Ther. 257: 946 (1991)). Cells were cultured in Dulbecco's modified Eagle's medium (Gibco/BRL) with 10% horse serum (Gibco/BRL), 5% fetal bovine serum (HyClone, Logan Utah), 1 mM sodium pyruvate, 4 mM L-Glutamine, and 50,000 units penicillin-streptomycin (Irvine Scientific). When cells were 80% confluent, they were plated to 12 well polystyrene plates (Costar). […]
Nicotinic acetylcholine receptor (nAChR) function was assayed using ^86Rb^+efflux according to a method described by Lukas et al., Anal. Biochem. 175: 212 (1988). […] Scintillation fluid was added and released radioactivity was measured by liquid scintillation counting. […]
When appropriate, dose-response curves of test compound were determined. The maximal activation for individual compounds (Emax) was determined as a percentage of the maximal activation induced by L-nicotine. […]

`c1cnc2cc3c(cc2n1)CCNCC3` [Compound A, 7,8,9,10-tetrahydro-6H-azepino[4,5-g]quinoxaline] was tested, and the recognition index ([1]; 0.03 mg/kg (0.15 μmol/kg) p.o., 6 h pre-treatment prior to the recall trial, vehicle 52±0.5%) was 64±3%, the recognition index ([1]; 0.3 mg/kg (1.5 μmol/kg) p.o., 30 minutes before the three trials, vehicle 50±0.5%) was 69±5% and the recognition index ([1]; 0.3 mg/kg (1.5 μmol/kg) p.o., 6 h pre-treatment prior to the recall trial, vehicle 52±0.5%) was 68±3%. For the same compound, the recognition index ([1]; 3 mg/kg (15.1 μmol/kg) p.o., 30 minutes before the three trials, vehicle 50±0.5%) was 65±3%, the “duration of effect on recognition memory index” value ([1]; 0.15 and 1.51 μmol/kg p.o., recall trial 6 h post administration) was “facilitated recognition memory index for up to 6 h after dosing” and the “effect on recognition memory (enhancement of recognition index vs vehicle)” value ([1]; 0.3 and 3 mg/kg p.o., 30 minutes before the three trials) was “facilitated recognition memory”. It also gave an EC50 ([2]; 86Rb+ efflux) of 4.4 µM and an Emax ([2]; percentage of maximal activation induced by L-nicotine) of 21%.
